According to the NIST ThermoML archive (doi:10.1021/je060271a):

Details: 303.14 K, Liquid, Vibrating tube method

CCCCCCC(=O)OCC(COC(=O)CCCCCC)(COC(=O)CCCCCC)COC(=O)CCCCCC [pentaerythritol tetraheptanoate]
Details | mass density [kg/m3]
3038.7 kPa | 972.7
3058.7 kPa | 972.6
3082.4 kPa | 972.7
3102.9 kPa | 972.7
3122.8 kPa | 972.6
3144 kPa | 972.7
3168.8 kPa | 972.6
3190.1 kPa | 972.7
3211.6 kPa | 972.8
3237.6 kPa | 972.8
3258.9 kPa | 972.7
3281.4 kPa | 972.8
3307.8 kPa | 972.7
3330.1 kPa | 972.8
3352.7 kPa | 972.9
3380 kPa | 972.9
3403.4 kPa | 972.9
3426.8 kPa | 973
3450.4 kPa | 972.9
3479.2 kPa | 972.9
3502.9 kPa | 972.9
3527.3 kPa | 972.9
3557 kPa | 973
3581.9 kPa | 973.1
3607.2 kPa | 972.9
3632.9 kPa | 973
3663.7 kPa | 973
3689.2 kPa | 973.1
3719.9 kPa | 973.1
3746.2 kPa | 973
3772.9 kPa | 973.1
3800.2 kPa | 973.1
3832.6 kPa | 973.2
3860.2 kPa | 973.1
3888.8 kPa | 973.1
3922.9 kPa | 973.2
3951.5 kPa | 973.3
3980.6 kPa | 973.3
4009.8 kPa | 973.2
4044.8 kPa | 973.2
4074.3 kPa | 973.3
4103.9 kPa | 973.4
4139.9 kPa | 973.4
4170.1 kPa | 973.4
4200.4 kPa | 973.3
4233.1 kPa | 973.3
4239.8 kPa | 973.3
4241.6 kPa | 973.4
4243.3 kPa | 973.4
4244.7 kPa | 973.5
4245.2 kPa | 973.4
4245.9 kPa | 973.5
4246.6 kPa | 973.4
4246.8 kPa | 973.5
4247.1 kPa | 973.4
4247.3 kPa | 973.4
4247.5 kPa | 973.5
4249.4 kPa | 973.4
4257.2 kPa | 973.5
4271.5 kPa | 973.3
4283.5 kPa | 973.5
4296.1 kPa | 973.4
4311.4 kPa | 973.5
4322.4 kPa | 973.6
4342.7 kPa | 973.4
4361.4 kPa | 973.4
4372.3 kPa | 973.5
4382.1 kPa | 973.5
4393.9 kPa | 973.6
4403.8 kPa | 973.4
4413.6 kPa | 973.4
4425.4 kPa | 973.5
4435.5 kPa | 973.5
4445.2 kPa | 973.5
4455.2 kPa | 973.5
4467.5 kPa | 973.6
4476.8 kPa | 973.6
4487.4 kPa | 973.6
4499.3 kPa | 973.5
4509.6 kPa | 973.5
4519.6 kPa | 973.6
4529.8 kPa | 973.5
4541.2 kPa | 973.6
4551.3 kPa | 973.5
4563.6 kPa | 973.6
4573.1 kPa | 973.6
4582.4 kPa | 973.6
4592.3 kPa | 973.7
4605.6 kPa | 973.6
4631.8 kPa | 973.7
4653.8 kPa | 973.6
4676.1 kPa | 973.5
4703.4 kPa | 973.7
4724.4 kPa | 973.8
4743.1 kPa | 973.7
4764.9 kPa | 973.7
4783.4 kPa | 973.6
4801.9 kPa | 973.8
4820.6 kPa | 973.8
4843.5 kPa | 973.7
4862.8 kPa | 973.7
4882.7 kPa | 973.8
4901.8 kPa | 973.6
4925 kPa | 973.8
4944 kPa | 973.8
4964.4 kPa | 973.9
4984.3 kPa | 974
5008.5 kPa | 973.8
5029 kPa | 973.9
5050.1 kPa | 974
5075 kPa | 973.9
5095.7 kPa | 973.9
5116.9 kPa | 974.1
5138.3 kPa | 974
5164.1 kPa | 974
5185.5 kPa | 974.1
5207.3 kPa | 974
5229.7 kPa | 974.1
5256.1 kPa | 974.1
5277.9 kPa | 974
5304.9 kPa | 974
5328.1 kPa | 974.1
5350.7 kPa | 974.1
5374.3 kPa | 974.1
5402.1 kPa | 974.2
5425.6 kPa | 974.1
5450.7 kPa | 974.3
5475.8 kPa | 974.1
5504.5 kPa | 974.2
5528.9 kPa | 974.2
5554 kPa | 974.3
5583.9 kPa | 974.3
5609.1 kPa | 974.3
5634.4 kPa | 974.3
5665 kPa | 974.3
5690.9 kPa | 974.2
5717.2 kPa | 974.3
5749 kPa | 974.4
5776.5 kPa | 974.3
5804.6 kPa | 974.3
5832 kPa | 974.4
5860 kPa | 974.4
5888.5 kPa | 974.4
5922.7 kPa | 974.5
5951.6 kPa | 974.3
5980.6 kPa | 974.5
6015.7 kPa | 974.6
6045.3 kPa | 974.5
6075.7 kPa | 974.4
6106.1 kPa | 974.5
6142.6 kPa | 974.5
6174.1 kPa | 974.6
6207 kPa | 974.5
6238.7 kPa | 974.6
6270.8 kPa | 974.6
6309.5 kPa | 974.6
6342.4 kPa | 974.7
6375.9 kPa | 974.7
6416.1 kPa | 974.8
6447.8 kPa | 974.8
6476.3 kPa | 974.7
6510.3 kPa | 974.7
6539.5 kPa | 974.8
6568.7 kPa | 974.8
6598.1 kPa | 974.9
6633.7 kPa | 974.8
6664.4 kPa | 974.9
6695.2 kPa | 974.8
6725.8 kPa | 974.8
6762.4 kPa | 974.9
6793.3 kPa | 975
6825.6 kPa | 975
6857.2 kPa | 975
6895.7 kPa | 975
6928 kPa | 975
6961.5 kPa | 975
7001.6 kPa | 975.1
7035.6 kPa | 975.2
7070.4 kPa | 975.2
7104.5 kPa | 975.1
7139.2 kPa | 975.2
7181.2 kPa | 975.2
7216.8 kPa | 975.2
7253.9 kPa | 975.3
7291.4 kPa | 975.3
7336.6 kPa | 975.2
7375.1 kPa | 975.4
7414.5 kPa | 975.3
7451.6 kPa | 975.3
7469.5 kPa | 975.4
7494.9 kPa | 975.4
7522.2 kPa | 975.3
7549.5 kPa | 975.4
7582.3 kPa | 975.4
7609.7 kPa | 975.5
7637.3 kPa | 975.6
7671.1 kPa | 975.5
7698.9 kPa | 975.6
7728.1 kPa | 975.5
7757.4 kPa | 975.5
7793.5 kPa | 975.6
7823.2 kPa | 975.6
7858.2 kPa | 975.7
7882.7 kPa | 975.7
7904.3 kPa | 975.7
7925.9 kPa | 975.6
7946.9 kPa | 975.6
7972.8 kPa | 975.7
7994 kPa | 975.6
8016.3 kPa | 975.8
8042.7 kPa | 975.7
8064.3 kPa | 975.8
8087 kPa | 975.8
8113.3 kPa | 975.8
8135.7 kPa | 975.8
8158.3 kPa | 975.8
8181.6 kPa | 975.8
8209 kPa | 975.8
8232.1 kPa | 975.9
8255.4 kPa | 976
8283 kPa | 975.9
8305.8 kPa | 975.8
8328.7 kPa | 975.9
